Test results from ChEMBL document CHEMBL3351732, “Potent bisimidazole-based HCV NS5A inhibitors bearing annulated tricyclic motifs” (Bioorg Med Chem Lett, 2014).

Legend:
Hepatitis C virus [1] = assay: Antiviral activity against HCV genotype 1b infected in human HuH7 cells by luciferase reporter gene assay; format: functional, cell-based, Hepacivirus hominis; details: Huh-7
Hepatitis C virus [2] = assay: Antiviral activity against HCV genotype 3a infected in human HuH7 cells by luciferase reporter gene assay; format: functional, cell-based, Hepacivirus hominis; details: Huh-7
Hepatitis C virus [3] = assay: Antiviral activity against HCV genotype 1a infected in human HuH7 cells by luciferase reporter gene assay; format: functional, cell-based, Hepacivirus hominis; details: subtype 1a, Huh-7
[4] = (§1) Clearance in Sprague-Dawley rat at 1 mg/kg, iv; format: ADME, organism-based; parameters: dose 1 mg/kg, route intravenous; details: Sprague-Dawley, in vivo
[5] = Drug level in Sprague-Dawley rat liver at 5 mg/kg, po measured 4 hrs post dose; format: ADME, organism-based; parameters: dose 5 mg/kg, route oral; details: read-out: Drug uptake
[6] = Tmax in Sprague-Dawley rat at 5 mg/kg, po; format: ADME, organism-based; parameters: dose 5 mg/kg, route oral; details: in vivo
[7] = Oral bioavailability in Sprague-Dawley rat at 5 mg/kg; format: ADME, organism-based; details: in vivo
[8] = Half life in Sprague-Dawley rat at 1 mg/kg, iv; format: ADME, organism-based; parameters: dose 1 mg/kg, route intravenous; details: in vivo
[9] = Volume of distribution at steady state in Sprague-Dawley rat at 1 mg/kg, iv; format: ADME, organism-based; parameters: dose 1 mg/kg, route intravenous; details: in vivo, read-out: Vdss
[10] = (§2) AUC(last) in Sprague-Dawley rat at 1 mg/kg, iv; format: ADME, organism-based, Plasma; parameters: time 0 - last, dose 1 mg/kg, route intravenous; details: Sprague-Dawley, plasma
[11] = Plasma concentration in Sprague-Dawley rat at 5 mg/kg, po measured 4 hrs post dose; format: ADME, organism-based; parameters: dose 5 mg/kg, route oral
[12] = AUC(last) in Sprague-Dawley rat at 5 mg/kg, po; format: ADME, organism-based; parameters: dose 5 mg/kg, route oral, time 0 - last; details: plasma
[13] = Cmax in Sprague-Dawley rat at 5 mg/kg, po; format: ADME, organism-based; parameters: dose 5 mg/kg, route oral; details: in vivo
Rattus norvegicus [14] = assay: as §1; format: ADME, organism-based; parameters: dose 1 mg/kg, route intravenous; details: in vivo
Rattus norvegicus [15] = assay: as §2; format: ADME, organism-based, Plasma; parameters: time 0 - last, dose 1 mg/kg, route intravenous; details: in vivo
Hepatitis C virus [16] = assay: Antiviral activity against HCV genotype 5a infected in human HuH7 cells by luciferase reporter gene assay; format: functional, cell-based, Hepacivirus hominis; details: Huh-7
Hepatitis C virus [17] = assay: Antiviral activity against HCV genotype 4a infected in human HuH7 cells by luciferase reporter gene assay; format: functional, cell-based, Hepacivirus hominis; details: Huh-7
Hepatitis C virus [18] = assay: Antiviral activity against HCV genotype 6a infected in human HuH7 cells by luciferase reporter gene assay; format: functional, cell-based, Hepacivirus hominis; details: Huh-7

COC(=O)N[C@H](C(=O)N1CCC[C@H]1c1ncc(-c2ccc3c(c2)oc2cc(-c4cnc([C@@H]5CCCN5C(=O)[C@@H](NC(=O)OC)C(C)C)[nH]4)ccc23)[nH]1)C(C)C
EC50 (Hepatitis C virus [1]): 0.041 nM
EC50 (Hepatitis C virus [2]): 1.3 nM
EC50 (Hepatitis C virus [3]): 0.4 nM

COC(=O)N[C@H](C(=O)N1CCC[C@H]1c1ncc(-c2ccc3c(c2)c(=O)c2ccc(-c4cnc([C@@H]5CCCN5C(=O)[C@@H](NC(=O)OC)C(C)C)[nH]4)cc2n3C)[nH]1)C(C)C
EC50 (Hepatitis C virus [1]): 0.028 nM
EC50 (Hepatitis C virus [3]): 11.1 nM

COC(=O)N[C@H](C(=O)N1CCC[C@H]1c1ncc(-c2ccc3c4ccc(-c5cnc([C@@H]6CCCN6C(=O)[C@@H](NC(=O)OC)C(C)C)[nH]5)cc4n(C)c3c2)[nH]1)C(C)C
EC50 (Hepatitis C virus [1]): 0.17 nM
EC50 (Hepatitis C virus [3]): 7.7 nM

COC(=O)N[C@H](C(=O)N1CCC[C@H]1c1ncc(-c2ccc3oc4cc(-c5cnc([C@@H]6CCCN6C(=O)[C@@H](NC(=O)OC)C(C)C)[nH]5)c(C)cc4c(=O)c3c2)[nH]1)C(C)C
EC50 (Hepatitis C virus [1]): 0.055 nM
EC50 (Hepatitis C virus [3]): 3.4 nM

COC(=O)N[C@H](C(=O)N1CCC[C@H]1c1ncc(-c2ccc3nc4cc(-c5cnc([C@@H]6CCCN6C(=O)[C@@H](NC(=O)OC)C(C)C)[nH]5)ccc4nc3c2)[nH]1)C(C)C
EC50 (Hepatitis C virus [1]): 0.037 nM
EC50 (Hepatitis C virus [3]): 0.088 nM

COC(=O)N[C@H](C(=O)N1CCC[C@H]1c1ncc(-c2ccc3oc4cc(-c5cnc([C@@H]6CCCN6C(=O)[C@@H](NC(=O)OC)C(C)C)[nH]5)c(Cl)cc4c(=O)c3c2)[nH]1)C(C)C
EC50 (Hepatitis C virus [1]): 0.029 nM
EC50 (Hepatitis C virus [3]): 2.5 nM

COC(=O)N[C@H](C(=O)N1CCC[C@H]1c1ncc(-c2ccc3oc4ccc(-c5cnc([C@@H]6CCCN6C(=O)[C@@H](NC(=O)OC)C(C)C)[nH]5)cc4c3c2)[nH]1)C(C)C
EC50 (Hepatitis C virus [1]): 0.17 nM
EC50 (Hepatitis C virus [3]): 9 nM

COC(=O)N[C@H](C(=O)N1CCC[C@H]1c1ncc(-c2ccc3c(c2)S(=O)(=O)c2cc(-c4cnc([C@@H]5CCCN5C(=O)[C@@H](NC(=O)OC)C(C)C)[nH]4)ccc2-3)[nH]1)C(C)C
EC50 (Hepatitis C virus [1]): 0.13 nM
EC50 (Hepatitis C virus [3]): 2 nM

COC(=O)N[C@H](C(=O)N1CCC[C@H]1c1ncc(-c2ccc3c(c2)CCc2cc(-c4cnc([C@@H]5CCCN5C(=O)[C@@H](NC(=O)OC)C(C)C)[nH]4)ccc2O3)[nH]1)C(C)C
EC50 (Hepatitis C virus [1]): 0.069 nM
EC50 (Hepatitis C virus [3]): 4.8 nM

COC(=O)N[C@H](C(=O)N1CCC[C@H]1c1ncc(-c2ccc3c(c2)C(=O)c2cc(-c4cnc([C@@H]5CCCN5C(=O)[C@@H](NC(=O)OC)C(C)C)[nH]4)ccc2-3)[nH]1)C(C)C
EC50 (Hepatitis C virus [1]): 0.045 nM
EC50 (Hepatitis C virus [3]): 0.45 nM

COC(=O)N[C@H](C(=O)N1CCC[C@H]1c1ncc(-c2ccc3c(c2)Cc2cc(-c4cnc([C@@H]5CCCN5C(=O)[C@@H](NC(=O)OC)C(C)C)[nH]4)ccc2-3)[nH]1)C(C)C
EC50 (Hepatitis C virus [1]): 0.042 nM
EC50 (Hepatitis C virus [2]): 3.8 nM
EC50 (Hepatitis C virus [3]): 0.25 nM

COC(=O)N[C@H](C(=O)N1CCC[C@H]1c1ncc(-c2ccc3c(c2)Oc2ccc(-c4cnc([C@@H]5CCCN5C(=O)[C@@H](NC(=O)OC)C(C)C)[nH]4)cc2C32CC2)[nH]1)C(C)C
EC50 (Hepatitis C virus [1]): 0.02 nM
EC50 (Hepatitis C virus [3]): 0.065 nM

COC(=O)N[C@H](C(=O)N1CCC[C@H]1c1ncc(-c2ccc3c(c2)Oc2ccc(-c4cnc([C@@H]5CCCN5C(=O)[C@@H](NC(=O)OC)C(C)C)[nH]4)cc2O3)[nH]1)C(C)C
clearance [4]: 11.2 mL/min/kg
EC50 (Hepatitis C virus [1]): 0.023 nM
concentration at 4 h [5]: 973 ng/mL
Tmax [6]: 1.33 h
bioavailability [7]: 20.1%
half-life [8]: 2.53 h
EC50 (Hepatitis C virus [2]): 0.06 nM
Vd [9]: 1.18 L/kg
AUC(0-t) [10]: 2570 ng·h/mL
concentration at 4 h [11]: 199 ng/mL
EC50 (Hepatitis C virus [3]): 0.044 nM
AUC(0-t) [12]: 1470 ng·h/mL
Cmax [13]: 339 ng/mL

COC(=O)N[C@H](C(=O)N1CCC[C@H]1c1ncc(-c2ccc3c(=O)c4cc(-c5cnc([C@@H]6CCCN6C(=O)[C@@H](NC(=O)OC)C(C)C)[nH]5)ccc4oc3c2)[nH]1)C(C)C
CL (Rattus norvegicus [14]): 55 mL/min/kg
EC50 (Hepatitis C virus [1]): 0.028 nM
concentration at 4 h [5]: 25 ng/mL
Tmax [6]: 0.5 h
bioavailability [7]: 6.7%
half-life [8]: 0.92 h
EC50 (Hepatitis C virus [2]): 1.4 nM
Vd [9]: 3.57 L/kg
AUClast (Rattus norvegicus [15]): 626 ng·h/mL
concentration at 4 h [11]: 14 ng/mL
EC50 (Hepatitis C virus [3]): 0.173 nM
AUC(0-t) [12]: 197 ng·h/mL
Cmax [13]: 96.5 ng/mL

COC(=O)N[C@H](C(=O)N1CCC[C@H]1c1ncc(-c2ccc3oc4cc(-c5cnc([C@@H]6CCCN6C(=O)[C@@H](NC(=O)OC)C(C)C)[nH]5)c(F)cc4c(=O)c3c2)[nH]1)C(C)C
EC50 (Hepatitis C virus [1]): 0.03 nM
EC50 (Hepatitis C virus [3]): 0.6 nM

COC(=O)N[C@H](C(=O)N1CCC[C@H]1c1ncc(-c2ccc(-c3ccc(-c4cnc([C@@H]5CCCN5C(=O)[C@@H](NC(=O)OC)C(C)C)[nH]4)cc3)cc2)[nH]1)C(C)C [DACLATASVIR]
EC50 (Hepatitis C virus [1]): 0.073 nM
EC50 (Hepatitis C virus [16]): 0.051 nM
EC50 (Hepatitis C virus [17]): 0.041 nM
EC50 (Hepatitis C virus [2]): 0.67 nM
EC50 (Hepatitis C virus [18]): 0.45 nM
EC50 (Hepatitis C virus [3]): 0.14 nM

COC(=O)N[C@H](C(=O)N1CCC[C@H]1c1ncc(-c2ccc3c(c2)-c2ccc(-c4cnc([C@@H]5CCCN5C(=O)[C@@H](NC(=O)OC)C(C)C)[nH]4)cc2-3)[nH]1)C(C)C
EC50 (Hepatitis C virus [1]): 0.55 nM
EC50 (Hepatitis C virus [3]): 3 nM

COC(=O)N[C@H](C(=O)N1CCC[C@H]1c1ncc(-c2ccc3c(c2)C(C)(C)c2cc(-c4cnc([C@@H]5CCCN5C(=O)[C@@H](NC(=O)OC)C(C)C)[nH]4)ccc2-3)[nH]1)C(C)C
EC50 (Hepatitis C virus [1]): 0.037 nM
EC50 (Hepatitis C virus [3]): 1.14 nM

COC(=O)N[C@H](C(=O)N1CCC[C@H]1c1ncc(-c2ccc3c(c2)Oc2ccc(-c4cnc([C@@H]5CCCN5C(=O)[C@@H](NC(=O)OC)C(C)C)[nH]4)cc2C(=O)N3)[nH]1)C(C)C
EC50 (Hepatitis C virus [1]): > 3.7 nM
EC50 (Hepatitis C virus [3]): > 100 nM

COC(=O)N[C@H](C(=O)N1CCC[C@H]1c1ncc(-c2ccc3c(c2)oc2ccc(-c4cnc([C@@H]5CCCN5C(=O)[C@@H](NC(=O)OC)C(C)C)[nH]4)cc23)[nH]1)C(C)C
EC50 (Hepatitis C virus [1]): 0.033 nM
EC50 (Hepatitis C virus [3]): 1.8 nM

COC(=O)N[C@H](C(=O)N1CCC[C@H]1c1ncc(-c2ccc3c(c2)[nH]c2cc(-c4cnc([C@@H]5CCCN5C(=O)[C@@H](NC(=O)OC)C(C)C)[nH]4)ccc23)[nH]1)C(C)C
EC50 (Hepatitis C virus [1]): 0.18 nM
EC50 (Hepatitis C virus [3]): 16.5 nM

COC(=O)N[C@H](C(=O)N1CCC[C@H]1c1ncc(-c2ccc3c(c2)Cc2cc(-c4cnc([C@@H]5CCCN5C(=O)[C@@H](NC(=O)OC)C(C)C)[nH]4)ccc2O3)[nH]1)C(C)C
EC50 (Hepatitis C virus [1]): > 3.7 nM
EC50 (Hepatitis C virus [3]): > 100 nM

COC(=O)N[C@H](C(=O)N1CCC[C@H]1c1ncc(-c2ccc3c(c2)CCc2ccc(-c4cnc([C@@H]5CCCN5C(=O)[C@@H](NC(=O)OC)C(C)C)[nH]4)cc2O3)[nH]1)C(C)C
EC50 (Hepatitis C virus [1]): 0.055 nM
EC50 (Hepatitis C virus [3]): 7.4 nM

COC(=O)N[C@H](C(=O)N1CCC[C@H]1c1ncc(-c2ccc3c(c2)Cc2ccc(-c4cnc([C@@H]5CCCN5C(=O)[C@@H](NC(=O)OC)C(C)C)[nH]4)cc2O3)[nH]1)C(C)C
clearance [4]: 15.8 mL/min/kg
EC50 (Hepatitis C virus [1]): 0.013 nM
concentration at 4 h [5]: 462 ng/mL
Tmax [6]: 3.33 h
bioavailability [7]: 41.1%
half-life [8]: 1.33 h
Vd [9]: 1.32 L/kg
AUC(0-t) [10]: 1060 ng·h/mL
concentration at 4 h [11]: 371 ng/mL
EC50 (Hepatitis C virus [3]): 0.098 nM
AUC(0-t) [12]: 2090 ng·h/mL
Cmax [13]: 380 ng/mL
